{"source": "patent US20240139480A1", "about": "“RETENTIVE DEVICES FOR GASTROINTESTINAL TRACT” (Teva Pharmaceutical Industries Ltd., priority 2021, published 2024)", "origin": "cited, not measured here", "conditions": "given as ester prodrug; extensive intestinal esterase degradation", "data": [{"smiles": "CC(C)OC(=O)OCOP(=O)(CO[C@H](C)Cn1cnc2c(N)ncnc21)OCOC(=O)OC(C)C", "note": "[Tenofovir disoproxil]", "values": [{"measurement": "bioavailability", "result": "about 30%"}]}]}
